This is an account of results in paper PMC8286817, “Identifying SARS-CoV-2 antiviral compounds by screening for small molecule inhibitors of Nsp14 RNA cap methyltransferase” (Biochemical Journal, 2021).

Read-outs that look alike come from different tables or passages of the source.

The test system of series [1] is SARS-CoV-2. Briefly: microbe, parasite or virus in culture. Format: cell-based.
In series [2] the target is O-6′-methylguanine-DNA methyltransferase, MGMT. Also noted: method as in PMID 16533784. The settings on record: read-out: IC50 against MGMT; cited from earlier work.
The test system of another series is Vero E6 cells. Nature of the series: Cell viability by DNA staining (DRAQ7) in the viral infection assay. The settings on record: 22 h post infection. In kind it is cell-based.
Series [3] relates to SARS-CoV-2. Conditions: remdesivir at 1 µM and below; cited from earlier work.
The target of series [4] is nsp10–16 fusion 2′-O-methyltransferase (Severe acute respiratory syndrome coronavirus 2, UniProt P0DTD1). Format: biochemical, SARS-CoV-2.
For a further series, the system named is SIRT1. Also noted: method as in PMID 22331558. The settings on record: read-out: IC50 against SIRT1; cited from earlier work.
The mark [5] stands for this setting: Severe acute respiratory syndrome coronavirus 2, Vero C1008, Vero E6 cells, MOI 0.5 PFU/cell, 22 h, in additional presence of 0.5 µM remdesivir, read-out: EC50 + Rem. of viral replication (viral nucleoprotein area).
Setting [6] is: Vero E6 cells, 0.5 µM remdesivir versus compound alone.

Procedure for Vero E6 cells: We assayed expression of the viral N protein as a surrogate for viral replication by infecting cells with a constant amount of SARS-CoV-2 in the presence of inhibitor. We then quantified viral replicative capacity in fixed cells 22 h post-infection using a fluorescent anti-nucleoprotein antibody.
1.5 × 10^3 Vero E6 cells (NIBC, U.K.) resuspended in DMEM containing 10% FBS were seeded into each well of 96-well imaging plates (Greiner 655090) and cultured overnight at 37°C and 5% CO2. The next day, a 5× solution of compounds were generated by dispensing 10 mM stocks of compounds into a v-bottom 96-well plate (Thermo 249946) and back filling with DMSO to equalise the DMSO concentration in all wells using an Echo 550 (Labcyte) before resuspending in DMEM containing 10% FBS. […] Finally, the cells were infected by adding 20 µl of SARS-CoV2 with a final MOI of 0.5 PFU/cell. 22 h post infection, cells were fixed, permeabilised, and stained for SARS-CoV2 N protein using Alexa488-labelled-CR3009 antibody produced custom (see section for Recombinant mAb production) and cellular DNA using DRAQ7 (ABCAM). Whole-well imaging at 5× was carried out using an Opera Phenix (PerkinElmer) and fluorescent areas and intensity calculated using the Phenix-associated software Harmony (PerkinElmer).

Consider `Nc1nc(OCc2cc(Br)cs2)c2[nH]cnc2n1` [Lomeguatrib], for which the EC50 with SARS-CoV-2 [1] (Severe acute respiratory syndrome coronavirus 2, Vero C1008, 22 h, read-out: EC50 of viral replication (viral nucleoprotein area)) came out at 59.8 µM; with SARS-CoV-2 [1] (setting [5]) it was 44.1 µM. For the same molecule, the “EC50 reduction when combined with remdesivir” value (from here on “EC50 reduction when combined”) with SARS-CoV-2 [1] (setting [6]) is given as about 27%. Besides, in series [2], the IC50 was about 5 nM. Also, the “Cytotoxicity at effective / EC50 concentrations (DNA staining)” value with Vero E6 cells is given as “slight cytotoxicity”.
`N#Cc1ccc(N2N=C3c4ccc(C(=O)O)cc4CC[C@@H]3[C@@H]2C2CCCC2)cc1Cl` [PF-03882845]: the “EC50 reduction when combined” value with SARS-CoV-2 [1] is about 56%. Further, the values for the EC50 with SARS-CoV-2 [1] (read-out: EC50 + Rem. of viral replication (viral nucleoprotein area)) and in the series on SARS-CoV-2 [1] (read-out: EC50 of viral replication (viral nucleoprotein area)) were 4.79 µM and 11 µM, respectively.
With `O=C(CCCN1CCC(O)(c2cccc(C(F)(F)F)c2)CC1)c1ccc(F)cc1` [Trifluperidol], the EC50 in the series on SARS-CoV-2 [1] (setting [5]) stood at 5.05 µM; with SARS-CoV-2 [1] (Severe acute respiratory syndrome coronavirus 2, Vero C1008, Vero E6 cells, MOI 0.5 PFU/cell, 22 h post infection, read-out: EC50 of viral replication (viral nucleoprotein area)), 14.9 µM. For the same molecule, in the series on SARS-CoV-2 [1] (setting [6]), the “EC50 reduction when combined” value was about 66%. In the series with Vero E6 cells, the “Cytotoxicity at effective / EC50 concentrations (DNA staining)” value is “little to no cytotoxicity”.
For `CCC(CC)COC(=O)[C@H](C)N[P@](=O)(OC[C@H]1O[C@@](C#N)(c2ccc3c(N)ncnn23)[C@H](O)[C@@H]1O)Oc1ccccc1` [remdesivir], the “Capacity to reduce viral titre in Vero E6 cells” value in the series with SARS-CoV-2 [3] is on record as “limited capacity to reduce viral titre”.
For `Nc1ncnc2c1ncn2[C@@H]1O[C@H](C[C@@H](N)CC[C@H](N)C(=O)O)[C@@H](O)[C@H]1O` [sinefungin], the “Inhibition of nsp10–16 methyltransferase (normalised HTRF)” value in series [4] is given as “able to inhibit methyltransfer by nsp10–16”.
For the molecule Inauhzin, the half-inhibitory concentration (IC50) with SIRT1 was about 1000 nM. The “EC50 reduction when combined” value in the series with SARS-CoV-2 [1] (setting [6]) is recorded as “no increased inhibitory capacity”. Further, the EC50 is 11.2 µM with SARS-CoV-2 [1] (Vero E6 cells, MOI 0.5 PFU/cell, 22 h, in additional presence of 0.5 µM remdesivir, read-out: EC50 + Rem. of viral replication (viral nucleoprotein area)) and 13 µM with SARS-CoV-2 [1] (Vero E6 cells, MOI 0.5 PFU/cell, 22 h post infection, read-out: EC50 of viral replication (viral nucleoprotein area)). Besides, in the series with Vero E6 cells, the “Cytotoxicity at effective / EC50 concentrations (DNA staining)” value is recorded as “little to no cytotoxicity”.
